Patent publication US20260250318A1, “COMPOSITIONS AND METHODS FOR CROSSING THE BLOOD BRAIN BARRIER” (VOYAGER THERAPEUTICS, INC., priority 2022, published 2026)

Columns and labels:
brain = experiment: Maturation of TTM-001 capsid, NGS enrichment in brain of CD-1 Outbred mice; format: in vivo; conditions: NGS fold-enrichment of TTM-001 matured AAV capsid variants in the brain of CD-1 Outbred mice; intravenous 1.0×10^12 VG/dose; 14 days in life; RNA; relative to non-matured TTM-001 control
Text: This Example describes maturation of the TTM-001 (SEQ ID NO: 981 (amino acid) and 983 (DNA), comprising SEQ ID NO: 941) and TTM-002 (SEQ ID NO: 982 (amino acid) and 984 (DNA), comprising SEQ ID NO: 2) capsid variants to further enhance their transduction and biodistribution in the central nervous system and evolve the AAV capsid variants to provide further cross-species compatibility. Two approaches were used to mature the TTM-001 and TTM-002 capsid sequences in order to randomize and mutate within and around the peptide insert comprised within loop IV of the capsid variant. […] In the first maturation approach, sets of three contiguous amino acids were randomized across the mutagenesis region in the TTM-001 and TTM-002 sequences, which spanned from position 450 to position 466, numbered according to SEQ ID NO: 981 and 982. In the second maturation approach, mutagenic primers were used to introduce point mutations at a low frequency, scattered across the mutagenesis region in the TTM-001 and TTM-002 sequences ranging from position 449 to position 466, numbered according to SEQ ID NO: 981 and 982. AAV capsid variants arising from each maturation approach for TTM-001 were pooled together and AAV capsid variants arising from each maturation approach for TTM-002 were also pooled together, for subsequent testing and characterization in mice.
The library of pooled matured AAV capsid variants generated from TTM-001 or library of pooled matured AAV capsid variants generated from the TTM-002 matured AAV capsid variant each were intravenously injected into the tail vein of three female CD-1 Outbred mice (Charles River) at a dose of 1.0×10^12 VG/dose. After 14-days in life, the brains of the mice were isolated and RNA was extracted. Following RNA recovery and RT-PCR amplification, a systematic NGS enrichment analysis was performed to calculate the fold enrichment ratio relative to the corresponding TTM-001 or TTM-002 control, and the peptides comprised within the variants were identified. The data for the TTM-001 matured capsid variants is provided in Table 13 and the data for the TTM-002 matured capsid variants is provided in Table 14.

[1] = test system: brains, heart, liver, muscle, and DRG of the NHPs; experiment: Maturation of TTM-001 and TTM-002 capsids, NGS enrichment in NHP tissues; format: in vivo; conditions: NGS, relative to AAV9 control; for Fold Enrichment relative to AAV9, Liver RNA (NHP): TTM-001 and TTM-002 matured AAV capsid variants
Text: This Example describes maturation of the AAV9 capsid variants, TTM-001 (SEQ ID NO: 981 (amino acid) and 983 (DNA), comprising SEQ ID NO: 941 (encoded by SEQ ID NO: 942)) and TTM-002 (SEQ ID NO: 982 (amino acid) and 984 (DNA), comprising SEQ ID NO: […] (encoded by SEQ ID NO: 944)) in NHPs to further enhance their transduction and biodistribution in the central nervous system as well as other tissues, and evolve the AAV capsid variants to provide further cross-species compatibility. Two approaches were used to mature the TTM-001 and TTM-002 capsid sequences in order to randomize and mutate within and around the peptide insert comprised within loop IV of the capsid variant. […] In the first maturation approach, sets of three contiguous amino acids were randomized across the mutagenesis region in the TTM-001 and TTM-002 sequences, which spanned from position 450 to position 466, numbered according to SEQ ID NO: 981 and 982. In the second maturation approach, mutagenic primers were used to introduce point mutations at a low frequency, scattered across the mutagenesis region in the TTM-001 and TTM-002 sequences ranging from position 449 to position 466, numbered according to SEQ ID NO: 981 and 982. AAV capsid variants arising from each maturation approach for TTM-001 and TTM-002 were pooled together, for subsequent testing and characterization in NHPs.
The library of pooled matured AAV capsid variants generated using the first maturation approach and the second maturation approach for the TTM-001 and TTM-002 AAV capsid variants were injected into two NHPs. […] Following RNA recovery and RT-PCR amplification, a systematic NGS enrichment analysis was performed to calculate the fold enrichment ratio relative to an AAV9 control, and the peptides comprised within the variants were identified.
Following the RNA recovery and NGS analysis from the second maturation approach, approximately 680,000 capsid variants were identified. The 680,000 matured capsid variants were then filtered based on samples with a raw virus count greater than 10 and a coefficient of variance (CV) of less than 1, which was calculated for each peptide across the brain samples taken from the two NHPs. […] Using this filtering criteria, this led to approximately 64,000 matured capsid variants.

Sequence | Fold enrichment over TTM-001 (brain) [fold] | Fold Enrichment relative to AAV9, DRG (NHP) [1] [fold] | Fold Enrichment relative to AAV9, Brain (NHP) [1] [fold] | Fold Enrichment relative to AAV9, Heart (NHP) [1] [fold] | Fold Enrichment relative to AAV9, Liver DNA (NHP) [1] [fold] | Fold Enrichment relative to AAV9, Liver RNA (NHP) [1] [fold] | Fold Enrichment relative to AAV9, Muscle (NHP) [1] [fold]
KTINGSGSPHSLWSNQQT | 4.467 | – | – | – | – | – | –
KTINGRLSPHFKAQNQQT | 2.097 | – | – | – | – | – | –
KTINGSGSPHSKAQATRT | 2.019 | – | – | – | – | – | –
KTINGSGSPHSKAKLRQT | 3.976 | – | – | – | – | – | –
KTINGSKSPHRTAQNQQT | 2.950 | – | – | – | – | – | –
KRSYGSGSPHSKAQNQQT | – | 0.000 | 0.000 | 0.000 | 2.841 | 22.474 | 0.000
KTINGSGSPHSKAQARKT | – | 0.000 | 0.000 | 0.000 | 3.644 | 96.557 | 0.000
KTINGSGSPHSKFRQQQT | – | 0.000 | 0.000 | 0.000 | 3.260 | 38.665 | 0.000
KTINGSGSPHWVPQNQQT | – | 0.000 | 0.000 | 0.000 | 3.219 | 22.907 | 0.000
KTINGSGSPHVYHQNQQT | – | 0.000 | 0.000 | 0.000 | 1.733 | 14.770 | 0.000
KTINGSGSPHLRWQNQQT | – | 0.000 | 0.000 | 0.000 | 9.649 | 21.014 | 0.000
KTINGSGSPHLVYQNQQT | – | 0.000 | 0.000 | 0.000 | 1.045 | 14.196 | 0.000
KTINGSGSPHSKAQYSRT | – | 0.000 | 0.000 | 0.000 | 0.956 | 60.119 | 0.000
KTINGSGSPHSKLCTQQT | – | 0.000 | 0.000 | 0.000 | 1.269 | 18.674 | 0.000
KTINGSGSPHSTTCNQQT | – | 0.000 | 0.000 | 0.000 | 3.315 | 23.771 | 0.000
KTINGSGSPHSLAWNQQT | – | 0.000 | 0.000 | 0.000 | 4.746 | 29.015 | 0.000
KTINGRRSPHMKAQNQQT | – | 0.000 | 0.000 | 0.000 | 3.510 | 12.136 | 0.000
KTINGSGSPHSKCSVQQT | – | 0.000 | 0.000 | 0.000 | 1.465 | 12.246 | 0.000
KTINGSGSPHSKGCTQQT | – | 0.000 | 0.000 | 0.000 | 0.529 | 26.068 | 0.000
KTINGSGSPHFPWQNQQT | – | 0.000 | 0.000 | 0.000 | 1.731 | 53.587 | 0.000
KTTRCSGSPHSKAQNQQT | – | 0.000 | 0.000 | 0.000 | 8.168 | 12.639 | 0.000
KTINGSGSPHSRCRNQQT | – | 0.000 | 0.000 | 0.000 | 5.150 | 64.416 | 0.000
KTINGSGSPHSKARISQT | – | 0.000 | 0.000 | 0.000 | 1.565 | 12.142 | 0.000
KTINGSGSPHSKAQSRKT | – | 0.000 | 0.000 | 0.000 | 2.715 | 14.589 | 0.000
KTINGSGSPHSYLVNQQT | – | 0.000 | 0.000 | 0.000 | 1.267 | 17.766 | 0.000
